Like-named read-outs stand apart in the source and are kept apart here.
Experiments:
[1] = tested on: normal rats; assay: Effect on blood pressure of normal rats by single oral administration; assay type: in vivo, Wistar rats; details: Rattus norvegicus, po, single, normal rats; for inhibition in vivo at 1 mg/kg / inhibition in vivo at 0.5 mg/kg / inhibition in vivo at 2 mg/kg: 8 h, read-out: blood pressure reduction at 8 h after the administration; for inhibition in vivo at 1 mg/kg / change in vivo at 1 mg/kg: 1.0 mg/kg p.o.; for change in vivo at 1 mg/kg / change in vivo at 0.5 mg/kg / change in vivo at 2 mg/kg: read-out: variations on heart rate; for inhibition in vivo at 0.5 mg/kg / change in vivo at 0.5 mg/kg: 0.5 mg/kg p.o.; for inhibition in vivo at 2 mg/kg / change in vivo at 2 mg/kg: 2.0 mg/kg p.o.
[2] = tested on: spontaneously hypertensive rats (SHR); assay: Effect on reducing blood pressure of spontaneously hypertensive rats (SHR) by multiple oral administrations; assay type: in vivo; details: Rattus norvegicus, SHR
[3] = tested on: renovascular hypertensive rats; assay: Effect on reducing blood pressure of renovascular hypertensive rats by single oral administration; assay type: in vivo, Wistar rats; details: for change in vivo at 1 mg/kg / inhibition in vivo at 1 mg/kg / change in vivo at 0.5 mg/kg / inhibition in vivo at 0.5 mg/kg / change in vivo at 2 mg/kg / inhibition in vivo at 2 mg/kg: Rattus norvegicus, single oral administration; for change in vivo at 1 mg/kg / change in vivo at 0.5 mg/kg / change in vivo at 2 mg/kg: RHR, read-out: Variations on heart rate; for inhibition in vivo at 1 mg/kg / inhibition in vivo at 0.5 mg/kg / inhibition in vivo at 2 mg/kg: two-kidney one-clip RHR, measured 1-10 h, read-out: Maximum blood pressure reduction; for blood pressure reduction effect compared with Azilsartan medoxomil: result in words

SMILES | inhibition in vivo at 1 mg/kg [1] | change in vivo at 1 mg/kg [1] | inhibition in vivo at 1 mg/kg ([2]; 1.0 mg/kg oral once per day, 1 hour after the administration, read-out: Maximum blood pressure reduction, 1st-day administration) | inhibition in vivo at 1 mg/kg ([2]; 1.0 mg/kg oral once per day, 1 hour after the administration, read-out: Maximum blood pressure reduction, 7th-day administration) | inhibition in vivo at 1 mg/kg ([2]; 1.0 mg/kg oral once per day, 1 hour after the administration, read-out: Maximum blood pressure reduction, 14th-day administration) | inhibition in vivo at 1 mg/kg ([2]; 1.0 mg/kg oral, read-out: Heart Rate (effect on reducing heart rate)) | change in vivo at 1 mg/kg [3] | inhibition in vivo at 1 mg/kg [3] | blood pressure reduction at 24 hours after the administration ([3]; renal artery-ligated rat, 24 hours after the administration, dose not stated) | inhibition in vivo at 0.5 mg/kg [1] | inhibition in vivo at 2 mg/kg [1] | change in vivo at 0.5 mg/kg [1] | change in vivo at 2 mg/kg [1] | change in vivo at 0.5 mg/kg [3] | inhibition in vivo at 0.5 mg/kg [3] | change in vivo at 2 mg/kg [3] | inhibition in vivo at 2 mg/kg [3] | blood pressure reduction effect compared with Azilsartan medoxomil ([3]; renal artery-ligated rat)
CCOc1nc2cccc(C(=O)OCc3oc(=O)oc3C)c2n1Cc1ccc(-c2ccccc2-c2noc(=O)[nH]2)cc1 [Azilsartan medoxomil, reference compound] | 6.4 ± 2.1% | -5 ± 2% | 32 ± 3.5% | 34 ± 2.8% | 36 ± 3.6% | 8 ± 3% | -7 ± 3% | 30 ± 3.8% | 20% | – | – | – | – | – | – | – | – | –
CCOc1nc2cccc(C(=O)OCOC(=O)OCc3ccno3)c2n1Cc1ccc(-c2ccccc2-c2noc(=O)[nH]2)cc1 [QR01030] | 5.2 ± 4.3% | 4% | – | – | – | – | -20 ± 6% | 25 ± 3.6% | – | 2.9 ± 3% | 3.7 ± 5.8% | -2 ± 4% | -3 ± 5% | -12 ± 6% | 18 ± 2% | -18 ± 7% | 30 ± 4.6% | –
CCOc1nc2cccc(C(=O)OCOC(=O)OCc3cn(C)cn3)c2n1Cc1ccc(-c2ccccc2-c2noc(=O)[nH]2)cc1 [QR01031] | 4.5 ± 3.8% | -4 ± 3% | – | – | – | – | -18 ± 6% | 25 ± 5.7% | – | 2.9 ± 2.6% | 4.7 ± 3.1% | -5 ± 5% | -8 ± 4% | -11 ± 5% | 18 ± 3.5% | -17 ± 5% | 32 ± 2.6% | –
CCOc1nc2cccc(C(=O)OCOC(=O)OCc3ccn(C)c3)c2n1Cc1ccc(-c2ccccc2-c2noc(=O)[nH]2)cc1 [QR01032] | 5.2 ± 2.7% | -5 ± 2% | – | – | – | – | -9 ± 4% | 28 ± 3.1% | – | 4.7 ± 3.1% | 4.8 ± 3.6% | -8 ± 6% | -3 ± 5% | -8 ± 6% | 20 ± 4.1% | -9 ± 5% | 35 ± 4.6% | close to that of Azilsartan medoxomil
CCOc1nc2cccc(C(=O)OC(C)OC(=O)OCc3ccn(C)c3)c2n1Cc1ccc(-c2ccccc2-c2noc(=O)[nH]2)cc1 (centres unmarked) [QR01033] | 6.4 ± 2.9% | -5 ± 3% | – | – | – | – | -15 ± 6% | 26 ± 3.7% | – | 2.3 ± 3.2% | 4.2 ± 5% | -3 ± 4% | -1 ± 7% | -8 ± 2% | 19 ± 2.1% | -19 ± 7% | 32 ± 4% | –
CCOc1nc2cccc(C(=O)OC3CCc4c3no[n+]4[O-])c2n1Cc1ccc(-c2ccccc2-c2noc(=O)[nH]2)cc1 (centres unmarked) [QR01035] | 3.4 ± 2.5% | -3 ± 3% | – | – | – | – | -23 ± 6% | 28 ± 4.5% | – | 6.4 ± 2.1% | 6.1 ± 3.8% | -4 ± 3% | 6% | -14 ± 6% | 20 ± 3.1% | -26 ± 5% | 36 ± 4.6% | close to that of Azilsartan medoxomil
